The results in this text go back to US10800741B2 (ANCUREALL PHARMACEUTICAL (SHANGHAI) CO., LTD., priority 2017, dated 2020).

Where two headings read alike, the source gives them in different places.

What all share (assay type): cell-based, Human
For one test, the system named is H1581 (FGFR1 amp). Nature of the test: In vitro growth inhibition of H1581 tumor cells (MTT/CCK8). To be noted: Homo sapiens, NCI-H1581; in vitro growth inhibition (or induction of apoptosis), cells cultured 3 to 5 days, MTT (CCK8); read-out: IC50 H1581 (FGFR1 amp). An excerpt: (§1) Tumor cell lines are an effective model for studying in vitro tumor growth inhibition. In the present invention, a representative tumor cell line was selected to determine the cell growth inhibition activity of the present compound. All cell lines used were from ATCC, DSMZ, and cell banks of the Chinese Academy of Sciences. Cell culture conditions and methods were in accordance with the requirements of each cell line. Cells were subcultured in vitro for no more than 3 generations each time, and as required, single-clone purification and identification of cell lines could be carried out.
(§2) The cell culture media used were RPMI1640 (Gibco), DMEM (Gibco), MEM (Gibco), L15 (Gibco), IMDM (Gibco), McCOY'S5A, and William's (Gibco). 5-20% fetal bovine serum (Gibco), 1% double antibiotic, 2 mM glutamine, or 1 mM sodium pyruvate were added. The names, species, major gene characteristics, culture media and cell sources of the cell lines used are shown in table 1, wherein “amp” refers to gene amplification. “+++” refers to gene overexpression. The main genetic characteristics of cells were obtained from the COSMIC Cell Lines Project and related research papers, respectively.
(§3) Adherent cells were digested with 0.25% trypsin-EDTA (Gibco). Suspension culture cells were collected by centrifugation (1700 rpm, 3 minutes). The supernatant was discarded and the cells were counted. According to each cell growth cycle, different concentrations of cells were prepared (5˜10×10^4 cells per ml), and inoculated to 96-well plates (Corning), with 100 μl per well, and incubated overnight at 37° C., 5% CO2. The next day, the test compound was added to the cultured cells (2 wells in parallel). The final concentration of the solvent was less than 1/1,000. The cells were further cultured for 3 to 5 days and assayed by MTT.
(§4) The compound was stored at a concentration of 10 mM at −20° C. and diluted to 2- or 10-fold series prior to use. BGJ398 and AC220 were synthesized according to the methods of WO2006420A1 and US2007232604A1, respectively.
(§5) The adherent cells were taken out from the cell culture medium, and immediately added to a freshly prepared complete medium containing 10% CCK8 (5% FBS), 100 ul per hole. The suspended cells were directly added to a CCK8 reagent until reaching a final concentration of 10% and cultured for 1 to 4 hours.
(§6) T=optical density of drug-treated cell wells−optical density of blank control wells; T0=optical density of cell wells before drug treatment−optical density of blank control wells; C=optical density of solvent control wells−optical density of blank control wells. […] The experiments were repeated 1 to 3 times and a statistical analysis of data was conducted.

The next test deals with KATO III (FGFR2 amp). In words: In vitro growth inhibition of KATO III tumor cells (MTT/CCK8). The settings on record: Homo sapiens, KATO III; in vitro growth inhibition (or induction of apoptosis), cells cultured 3 to 5 days, MTT (CCK8); read-out: IC50 KATO III (FGFR2 amp).
Text: as §1, §2, §3, §4, §5, §6

The subject of another test is MOLM-13 (FLT3-ITD). Nature of the test: In vitro growth inhibition of MOLM-13 tumor cells (MTT/CCK8). To be noted: Homo sapiens.
Text: as §1, §2, §3, §4, §5, §6

A further test relates to KCL-22 (BCR-ABL). Nature of the test: In vitro growth inhibition of KCL-22 tumor cells (MTT/CCK8). To be noted: Homo sapiens, KCL-22; in vitro growth inhibition (or induction of apoptosis), cells cultured 3 to 5 days, MTT (CCK8); read-out: IC50 KCL-22 (BCR-ABL).
Text: as §1, §2, §3, §4, §5, §6

Another test relates to Kasumi-1 (KIT N822K). In words: In vitro growth inhibition of Kasumi-1 tumor cells (MTT/CCK8). To be noted: Homo sapiens, Kasumi 1; in vitro growth inhibition (or induction of apoptosis), cells cultured 3 to 5 days, MTT (CCK8); read-out: IC50 Kasumi-1 (KIT N822K).
Text: as §1, §2, §3, §4, §5, §6

A further test concerns H1703 (PDGFRa amp). Nature of the test: In vitro growth inhibition of H1703 tumor cells (MTT/CCK8). The settings on record: Homo sapiens, NCI-H1703; in vitro growth inhibition (or induction of apoptosis), cells cultured 3 to 5 days, MTT (CCK8); read-out: IC50 H1703 (PDGFRa amp).
Text: as §1, §2, §3, §4, §5, §6

For another test, the system named is Karpas 299 (NPM-ALK). In words: In vitro growth inhibition of Karpas 299 tumor cells (MTT/CCK8). To be noted: Homo sapiens.
Text: as §1, §2, §3, §4, §5, §6

Another test concerns Hep3B2 (FGFR3/4+++). In words: In vitro growth inhibition of Hep3B2 tumor cells (MTT/CCK8). The settings on record: Homo sapiens, Hep3B; in vitro growth inhibition (or induction of apoptosis), cells cultured 3 to 5 days, MTT (CCK8); read-out: IC50 Hep3B2 (FGFR3/4+++).
Text: as §1, §2, §3, §4, §5, §6

The mark [1] stands for this setting: MOLM-13, in vitro growth inhibition (or induction of apoptosis), cells cultured 3 to 5 days, MTT (CCK8), read-out: IC50 MOLM-13 (FLT3-ITD).
[2] abbreviates: KARPAS-299, in vitro growth inhibition (or induction of apoptosis), cells cultured 3 to 5 days, MTT (CCK8), read-out: IC50 Karpas 299 (NPM-ALK).

For `CC(C)(C)c1cc(NC(=O)Nc2ccc(-c3cn4c(n3)sc3cc(OCCC5CCOCC5)ccc34)cc2)no1` [AC220, reference compound], the IC50 with H1581 (FGFR1 amp) was > 1000 nM; in the test on KATO III (FGFR2 amp), > 1000 nM; in the test on MOLM-13 (FLT3-ITD) (setting [1]), 0.69 nM; with KCL-22 (BCR-ABL) it was > 1000 nM; with Kasumi-1 (KIT N822K), > 1000 nM; in the test on H1703 (PDGFRa amp), > 1000 nM. The IC50 in the test with Karpas 299 (NPM-ALK) (setting [2]) is > 1000 nM.
On to `COCCOc1cc2nccc(Oc3ccc(NC(=O)Nc4cc(C(C)(C)C)n[nH]4)c(Cl)c3)c2cc1C(N)=O` [Compound 42, 4-{4-[3-(5-tert-butyl-2H-pyrazol-3-yl)-ureido]-3-chloro-phenoxy}-7-(2-methoxy-ethoxy)-quinolin-6-carboxamide], for which the IC50 turned out to be 9.19 nM in the test on H1581 (FGFR1 amp); 0.98 nM in the test with KATO III (FGFR2 amp); 46.5 nM with KCL-22 (BCR-ABL); 191 nM in the test on Kasumi-1 (KIT N822K); 11.9 nM with H1703 (PDGFRa amp); 93 nM in the test with Karpas 299 (NPM-ALK) (setting [2]).
Regarding `CC(C)(C)c1cc(NC(=O)Nc2ccc(Oc3ccnc4cc(OCCCN5CCN(c6ccccc6)CC5)c(C(N)=O)cc34)cc2Cl)[nH]n1` [Compound 86, 4-{4-[3-(5-tert-butyl-2H-pyrazol-3-yl)-ureido]-3-chloro-phenoxy}-7-[3-(4-phenyl-piperazin-1-yl)-propoxy]-quinolin-6-carboxamide], the IC50 in the test on H1581 (FGFR1 amp) worked out at 326 nM; in the test with KATO III (FGFR2 amp) it was 68.3 nM; in the test on Hep3B2 (FGFR3/4+++) it was 85.1 nM; in the test on Kasumi-1 (KIT N822K), 76.3 nM; with H1703 (PDGFRa amp), 370 nM; in the test with Karpas 299 (NPM-ALK) (setting [2]), 600 nM.
Turning to `CC(C)(C)c1cc(NC(=O)Nc2ccc(Oc3ccnc4cc(OCCCN5CCN(C(C)(C)C)CC5)c(C(N)=O)cc34)cc2Cl)[nH]n1` [Compound 87, 7-[3-(4-tert-butyl-piperazin-1-yl)-propoxy]-4-{4-[3-(5-tert-butyl-2H-pyrazol-3-yl)-ureido]-3-chlorophenoxy}-quinolin-6-carboxamide], the IC50 amounted to 1.02 nM in the test on KATO III (FGFR2 amp); 57.2 nM in the test on Hep3B2 (FGFR3/4+++); 3.65 nM in the test on MOLM-13 (FLT3-ITD) (setting [1]); 55.1 nM in the test with KCL-22 (BCR-ABL); 4.19 nM with Kasumi-1 (KIT N822K); 12.5 nM in the test on H1703 (PDGFRa amp). Moreover, the IC50 in the test on Karpas 299 (NPM-ALK) (setting [2]) was 144 nM.
Turning to `CN1CCCN(CCCOc2cc3nccc(Oc4ccc(NC(=O)Nc5cc(C(C)(C)C)n[nH]5)c(Cl)c4)c3cc2C(N)=O)CC1` [Compound 88, 4-{4-[3-(5-tert-butyl-2H-pyrazol-3-yl)-ureido]-3-chloro-phenoxy}-7-[3-(4-methyl-[1,4]-1-yl)-propoxy]-quinolin-6-carboxamide], the IC50 in the test on KATO III (FGFR2 amp) was 5.67 nM; with Hep3B2 (FGFR3/4+++), 175 nM; in the test with MOLM-13 (FLT3-ITD) (setting [1]), 5.49 nM; in the test with KCL-22 (BCR-ABL), 282 nM; with Kasumi-1 (KIT N822K) it was 15.6 nM; in the test on H1703 (PDGFRa amp), 55.6 nM. Besides, the IC50 with Karpas 299 (NPM-ALK) (setting [2]) is 153 nM.
For `CC(C)(C)c1cc(NC(=O)Nc2ccc(Oc3ccnc4cc(OCCCN5CCN(CC6CCCCC6)CC5)c(C(N)=O)cc34)cc2Cl)[nH]n1` [Compound 90], the IC50 in the test with KATO III (FGFR2 amp) was determined as 2.78 nM; in the test on Hep3B2 (FGFR3/4+++) it was 101 nM; with MOLM-13 (FLT3-ITD) (setting [1]) it was 7.54 nM; in the test on KCL-22 (BCR-ABL) it was 175 nM; in the test with Kasumi-1 (KIT N822K) it was 9.47 nM; in the test on Karpas 299 (NPM-ALK) (setting [2]) it was 256 nM.
Take `CC(=O)N1CCN(CCCOc2cc3nccc(Oc4ccc(NC(=O)Nc5cc(C(C)(C)C)n[nH]5)c(Cl)c4)c3cc2C(N)=O)CC1` [Compound 91, 7-[3-(4-acetyl-piperazin-1-yl)-propoxy]-4-{4-[3-(5-tert-butyl-2H-pyrazol-3-yl)-ureido]-3-chloro-phenoxy}-quinolin-6-carboxamide]: the IC50 with KATO III (FGFR2 amp) was determined as 1.26 nM; with Hep3B2 (FGFR3/4+++), 43.1 nM; in the test on MOLM-13 (FLT3-ITD) (setting [1]), 6.41 nM; in the test with KCL-22 (BCR-ABL), 184 nM; with Kasumi-1 (KIT N822K) it was 16.4 nM; in the test with Karpas 299 (NPM-ALK) (setting [2]) it was 216 nM.
On to `COc1cc2nccc(Oc3ccc(NC(=O)Nc4cc(C(C)(C)C)n[nH]4)cn3)c2cc1C(N)=O` [Compound 108, 4-{5-[3-(5-tert-butyl-2H-pyrazol-3-yl)-ureido]-pyridin-2-yloxy}-7-methoxy-quinolin-6-carboxamide], for which the IC50 with H1581 (FGFR1 amp) was 146 nM; in the test with KATO III (FGFR2 amp) it was 31.3 nM; with MOLM-13 (FLT3-ITD) (setting [1]), 3.81 nM; in the test with KCL-22 (BCR-ABL), > 1000 nM; with Kasumi-1 (KIT N822K), > 1000 nM; with H1703 (PDGFRa amp), 666 nM. Further, in the test with Karpas 299 (NPM-ALK) (setting [2]), the IC50 was > 1000 nM.
`COCCOc1cc2nccc(Oc3ccc(NC(=O)Nc4cc(C(C)(C)C)nn4CCN4CCOCC4)cc3F)c2cc1NC(C)=O` [Compound 136, N-[4-(4-{3-[5-tert-butyl-2-(2-morpholin-4-yl-ethyl)-2H-pyrazol-3-yl]-ureido}-2-fluoro-phenoxy)-7-(2-methoxy-ethoxy)-quinolin-6-yl]-acetamide]: the IC50 in the test with H1581 (FGFR1 amp) stood at 39 nM; in the test with KATO III (FGFR2 amp) it was 0.4 nM; in the test with MOLM-13 (FLT3-ITD) (setting [1]) it was 0.05 nM.
For `COCCOc1cc2nccc(Oc3ccc(NC(=O)Nc4cc(C(C)(C)C)nn4CCN4CCOCC4)cc3Cl)c2cc1NC(C)=O` [Compound 137, N-[4-(4-{3-[5-tert-butyl-2-(2-morpholin-4-yl-ethyl)-2H-pyrazol-3-yl]-ureido}-2-chloro-phenoxy)-7-(2-methoxy-ethoxy)-quinolin-6-yl]-acetamide], the IC50 in the test on H1581 (FGFR1 amp) amounted to 41.2 nM; in the test with KATO III (FGFR2 amp), 1.21 nM; in the test with MOLM-13 (FLT3-ITD) (setting [1]), 0.34 nM.
For the compound `CC(C)(C)c1cc(NC(=O)Nc2ccc(Oc3ccnc4cc(OCCCN5CCOCC5)c(C(N)=O)cc34)cc2Cl)[nH]n1` [Compound 138, 4-{4-[3-(5-tert-butyl-2H-pyrazol-3-yl)-ureido]-3-chloro-phenoxy}-7-(3-morpholin-4-yl-propoxy)-quinolin-6-carboxamide], the IC50 in the test on H1581 (FGFR1 amp) came out at 97.3 nM; with KATO III (FGFR2 amp), 18.2 nM; in the test with MOLM-13 (FLT3-ITD) (setting [1]), 21.3 nM.
In the case of `CN1CCN(CCCOc2cc3nccc(Oc4ccc(NC(=O)Nc5cc(C(C)(C)C)nn5C5CCCC5)c(Cl)c4)c3cc2C(N)=O)CC1` [Compound 139], the IC50 with H1581 (FGFR1 amp) was 3.44 nM; in the test on KATO III (FGFR2 amp), 1.14 nM; in the test on MOLM-13 (FLT3-ITD) (setting [1]), 9.87 nM.
In the same order, the values of `CC(C)(C)c1cc(NC(=O)Nc2ccc(Oc3ccnc4cc(OCCCN5CCOCC5)c(C(N)=O)cc34)cc2Cl)n(C2CCCC2)n1` [Compound 140, 4-{4-[3-(5-tert-butyl-2-cyclopentyl-2H-pyrazol-3-yl)-ureido]-3-chloro-phenoxy}-7-(3-morpholin-4-yl-propoxy)-quinolin-6-carboxamide] are 115 nM, 23.7 nM and 17.9 nM.
Regarding `Cc1ccc(C(=O)Nc2ccc(CN3CCN(C)CC3)c(C(F)(F)F)c2)cc1C#Cc1cnc2cccnn12` [Ponatinib, reference compound], the IC50 in the test with MOLM-13 (FLT3-ITD) (MOLM-13, read-out: IC50 MOLM-13 (FLT3-ITD)) was < 1 nM; with Karpas 299 (NPM-ALK) (KARPAS-299, read-out: IC50 Karpas 299 (NPM-ALK)) it was 798 nM.
